Test system: MIA-induced OA rats
Assay: Analgesic action to MIA-induced osteoarthritis model rats (von Frey test, 50% reaction threshold to mechanical stimulus)
Type: in vivo, rat (male Wistar)
Conditions: Rattus norvegicus, ip, single intraperitoneal dose of 200 μg/kg, von Frey test after 1 hour from administration, normal threshold value 15, read-out: Recovery rate of 50% reaction threshold value (%)
Experimental: Pharmacological Test I: Analgesic Action to Osteoarthritis Model Rats
There were conducted the following experiments for testing the analgesic action of the analgesic of the present invention using the osteoarthritis (OA) rats induced by sodium monoiodoacetate (MIA) which were model animals for OA.
(1) Preparation of MIA-Induced OA Rats
A 50% reaction threshold value to the mechanical stimulus of male Wistar rats of six weeks age was measured (the measuring method will be mentioned later) and a normal control group was selected. MIA prepared by saline was administered in a single dose of 300 μg/50 μL into right knee joint of the rats except the normal control group while 50 μL of saline was administered into left knee joint whereupon the MIA-induced OA rats were prepared. To the normal control group, 50 μL of saline was administered into the joints of both knees.
With regard to the male Wistar rats of six weeks age used as experimental animals except the normal control group, their 50% reaction threshold values to the mechanical stimulus (the measuring method will be mentioned later) and body weights were measured after […] from the administration of MIA mentioned in (1) and then 3 groups each comprising six rats [a normal control group, an onset control group and a test drug-administered group] were organized.
(3) Administration of Test Drug
A test drug solution (100 μg/mL) using the compound according to the analgesic of the present invention as a test drug was prepared using a phosphate buffered saline (PBS) containing 0.1 vol % of dimethyl sulfoxide (DMSO).
Immediately after the grouping (after 14 days from the administration of MIA), a test drug solution was intraperitoneally administered in a single dose of 200 μg/kg to a test drug-administered group. Meanwhile, to the normal control group and the onset control group, PBS containing 0.1 vol % of DMSO was intraperitoneally administered in a single dose.
(4) Result of Measurement of the 50% Reaction Threshold Values to the Mechanical Stimulus (Von Frey Test)
The three groups of rats of the above (2) were placed in a transparent acrylic cage with a wire-meshed floor and habituated for about three minutes and the 50% reaction threshold values to the mechanical stimulus were measured after 1 hour from the administration of a test drug. The measurement was conducted using von Frey filaments (manufactured by North Coast Medical Inc.) in accordance with the methods of Chaplan, et al. (Journal of Neuroscience Methods, vol. 53, no. 1, pages 55 to 63, 1994) and Dixon, et al. (Annual Review of Pharmacology and Toxicology, vol. 20, pages 441 to 462, 1980). […] The case where the rat escaped at the instance of removing the filament was also called positive. When the positive reaction was noted, stimulus was conducted similarly using a filament of one rank weaker while, when no reaction was noted, stimulus was conducted similarly using a filament of one rank stronger and the point when the reaction changed from negative to positive or from positive to negative was called the first two reactions. After that, stimulus was conducted for continuous four times by the same up-down method. A 50% reaction threshold value to the mechanical stimulus was measured using the reaction to the six stimuli in total and then (mean value)±(standard error) for each group was calculated. Incidentally, when stimulus reached by that of 15.0 g without positive reaction or, when positive reaction continued to 0.4 g, then 15.0 g or 0.25 g was adopted as each threshold value, respectively.
With regard to the 50% reaction threshold value after 1 hour from administration of a test drug, a recovery rate (%) of the 50% reaction threshold value was calculated by the following expression in which 15 was adopted as the normal threshold value. […]

SMILES	inhibition in vivo at 0.2 mg/kg [%]
CCCCCCC/C=C/C(=O)OCCN(C)C [Compound 1, (E)-2-(dimethylamino)ethyl dec-2-enoate]	25.5
CCCCCCC/C=C/C(=O)N(CCN(C)C)CCN(C)C [Compound 45, (E)-N,N-bis(2-(dimethylamino)ethyl) dec-2-enamide]	10.2
CCCCCCC/C=C/C(=O)OCCOC [Compound 9, (E)-2-methoxyethyl dec-2-enoate]	13
CCCCCCC/C=C/C(=O)NCCCCCC [Compound 22, (E)-N-hexyl dec-2-enamide]	44.3
CCCCCCC/C=C/C(=O)NC1CCCCC1 [Compound 27, (E)-N-cyclohexyl dec-2-enamide]	5.8
CCCCCCC/C=C/C(=O)SCCCCCC [Compound 50, (E)-S-hexyl dec-2-enethioate]	15.6
CCCCCCC/C=C/C(=O)N(CC)CCN(CC)CC [Compound 44 (Citrate), (E)-N-(2-(diethylamino)ethyl)-N-ethyl dec-2-enamide]	21.7
CCCCCCC/C=C/C(=O)NCCN(CC)CC [Compound 37 (Citrate), (E)-N-2-(diethylamino)ethyl dec-2-enamide]	45.1
CCCCCCC/C=C/C(=O)SCCN(CC)CC [Compound 56, (E)-S-2-(diethylamino)ethyl dec-2-enethioate]	21.8
CCCCCCC/C=C/C(=O)OCCSC(C)C [Compound 8, (E)-2-(isopropylthio)ethyl dec-2-enoate]	28.9
CCCCCCC/C=C/C(=O)NCC(C)C [Compound 18, (E)-N-isobutyl dec-2-enamide]	49

— patent publication US20150297562A1, “ANALGESIC” (NIPPON ZOKI PHARMACEUTICAL CO., LTD., priority 2012, published 2015)
